# Test results: PMC7023430, “4-Aminobenzoic Acid Derivatives: Converting Folate Precursor to Antimicrobial and Cytotoxic Agents” (Biomolecules, 2019)
# Like-named read-outs stand apart in the source and are kept apart here.
# Assays:
# [1] = system: Staphylococcus aureus ATCC 29213, CCM 4223; experiment: Antibacterial microdilution broth method, S. aureus; format: cell-based
# [2] = system: methicillin-resistant Staphylococcus aureus ATCC 43300, CCM 4750 (MRSA); experiment: Antibacterial microdilution broth method, MRSA; format: cell-based; settings: Staphylococcus aureus
# [3] = system: Staphylococcus epidermidis H 6966/08; experiment: Antibacterial microdilution broth method, S. epidermidis; format: cell-based; settings: Staphylococcus epidermidis, H6966/08, S. epidermidis
# [4] = system: Enterococcus faecalis ATCC 29212, CCM 4224; experiment: Antibacterial microdilution broth method, E. faecalis; format: cell-based; settings: Enterococcus faecalis
# [5] = system: Escherichia coli ATCC 25922, CCM 3954; experiment: Antibacterial microdilution broth method, E. coli; format: cell-based; settings: Escherichia coli
# [6] = system: Pseudomonas aeruginosa ATCC 27853, CCM 3955; experiment: Antibacterial microdilution broth method, P. aeruginosa; format: cell-based; settings: Pseudomonas aeruginosa
# [7] = system: Mycobacterium tuberculosis H37Rv (331/88); experiment: Antimycobacterial micromethod in Šula's medium, M. tuberculosis; format: cell-based
# [8] = system: Mycobacterium avium 330/88; experiment: Antimycobacterial micromethod in Šula's medium, M. avium; format: cell-based
# [9] = system: Mycobacterium kansasii 235/80; experiment: Antimycobacterial micromethod in Šula's medium, M. kansasii 235/80; format: cell-based
# [10] = system: M. kansasii 6509/96 (clinical isolate); experiment: Antimycobacterial micromethod in Šula's medium, M. kansasii 6509/96; format: cell-based; settings: Mycobacterium kansasii
# [11] = system: Candida albicans ATCC 44859; experiment: Antifungal microdilution broth method, C. albicans; format: cell-based
# Method: (§1) The antifungal properties were evaluated against five yeast strains, namely: Candida albicans ATCC 44859, Candida tropicalis 156, Candida krusei […], Candida glabrata 20/I, Trichosporon […] 1188 and three strains of filamentous fungi: Aspergillus fumigatus 231, Lichtheimia corymbifera 272, and Trichophyton interdigitale 445. A microdilution broth method was performed according to EUCAST II, III instructions with slight modifications. Briefly, tested compounds were dissolved in DMSO and diluted in a twofold manner with RPMI-1640 medium with L-glutamine, supplemented with 2% glucose (w/v) and buffered to pH 7.0 with 3 morpholinopropane-1-sulfonic acid (all components were purchased from Sigma-Aldrich, USA). […] Positive controls consisted of test microbe solely, while negative controls consisted of medium and DMSO. Internal quality control was included too. Visual inspection was used for MIC endpoints evaluation. The experiments were conducted in duplicates. For the results to be valid, the difference in MIC determined from two parallel measurements must not be greater than one step on the dilution scale. PABA and triazole antimycotic drug fluconazole were involved as the reference compounds.
# Candida tropicalis 156 = experiment: Antifungal microdilution broth method, C. tropicalis; format: cell-based
# Method: as §1
# Candida krusei E28 = experiment: Antifungal microdilution broth method, C. krusei; format: cell-based; settings: Pichia kudriavzevii
# Method: as §1
# Candida glabrata 20/I = experiment: Antifungal microdilution broth method, C. glabrata; format: cell-based; settings: Nakaseomyces glabratus
# Method: as §1
# Trichosporon asahii 1188 = experiment: Antifungal microdilution broth method, T. asahii; format: cell-based
# Method: as §1
# [12] = system: Aspergillus fumigatus 231; experiment: Antifungal microdilution broth method, A. fumigatus; format: cell-based
# Method: as §1
# [13] = system: Lichtheimia corymbifera 272; experiment: Antifungal microdilution broth method, L. corymbifera; format: cell-based
# Method: as §1
# [14] = system: Trichophyton interdigitale 445; experiment: Antifungal microdilution broth method, T. interdigitale; format: cell-based
# Method: as §1
# [15] = system: four Gram-positive and four Gram-negative strains; experiment: Antibacterial activity; format: cell-based; settings: time not stated
# [16] = system: Mtb. 331/88 and three non-tuberculous mycobacterial strains; experiment: Antimycobacterial activity; format: cell-based; settings: statement over four mycobacterial strains; time not stated
# eight fungal strains = experiment: Antifungal activity; format: cell-based; settings: statement over the fungal panel; time not stated
# Method: as §1
# [17] = system: ESBL-positive Klebsiella pneumoniae J 14368/08
# [18] = system: Klebsiella pneumoniae D 11750/08; experiment: Antibacterial microdilution broth method, K. pneumoniae; settings: K. pneumoniae D 11750/08; for MIC KP 24 h: 24 h incubation; for MIC KP 48 h: 48 h incubation
# [19] = 24 h incubation, read-out: MIC SA 24 h
# [20] = 48 h incubation, read-out: MIC SA 48 h
# [21] = 24 h incubation, read-out: MIC MRSA 24 h
# [22] = 48 h incubation, read-out: MIC MRSA 48 h
# [23] = 24 h incubation, read-out: MIC SE 24 h
# [24] = 48 h incubation, read-out: MIC SE 48 h
# [25] = 24 h incubation, read-out: MIC EF 24 h
# [26] = 48 h incubation, read-out: MIC EF 48 h
# [27] = 24 h incubation, read-out: MIC EC 24 h
# [28] = 48 h incubation, read-out: MIC EC 48 h
# [29] = P. aeruginosa, 24 h incubation, read-out: MIC PA 24 h
# [30] = P. aeruginosa, 48 h incubation, read-out: MIC PA 48 h
# [31] = 336 h, 14 days incubation at 37 °C, read-out: MIC Mtb. 331/88 14 d
# [32] = 504 h, 21 days incubation at 37 °C, read-out: MIC Mtb. 331/88 21 d
# [33] = 330/88, 336 h, 14 days incubation at 37 °C, read-out: MIC M. avium 330/88 14 d
# [34] = 330/88, 504 h, 21 days incubation at 37 °C, read-out: MIC M. avium 330/88 21 d
# [35] = 235/80, 168 h, 7 days incubation at 37 °C, read-out: MIC M. kansasii 235/80 7 d
# [36] = 235/80, 336 h, 14 days incubation at 37 °C, read-out: MIC M. kansasii 235/80 14 d
# [37] = 235/80, 504 h, 21 days incubation at 37 °C, read-out: MIC M. kansasii 235/80 21 d
# [38] = 168 h, 7 days incubation at 37 °C, read-out: MIC M. kansasii 6509/96 7 d
# [39] = 336 h, 14 days incubation at 37 °C, read-out: MIC M. kansasii 6509/96 14 d
# [40] = 504 h, 21 days incubation at 37 °C, read-out: MIC M. kansasii 6509/96 21 d
# [41] = ATCC44859, 24 h, read-out: MIC CA 24 h
# [42] = ATCC44859, 48 h, read-out: MIC CA 48 h
smiles,measurement,setting,value
"O=C(O)c1ccc(N=Cc2ccccc2O)cc1 [1a, 4-[(2-Hydroxybenzylidene)amino]benzoic acid]",MIC,[1]; [19],> 500 µM
same,MIC,[1]; [20],> 500 µM
same,MIC,[2]; [21],> 500 µM
same,MIC,[2]; [22],> 500 µM
same,MIC,[3]; [23],> 500 µM
same,MIC,[3]; [24],> 500 µM
same,MIC,[4]; [25],> 500 µM
same,MIC,[4]; [26],> 500 µM
same,MIC,[5]; [27],> 500 µM
same,MIC,[5]; [28],> 500 µM
same,MIC,[6]; [29],> 500 µM
same,MIC,[6]; [30],> 500 µM
same,MIC,[7]; [31],> 1000 µM
same,MIC,[7]; [32],> 1000 µM
same,MIC,[8]; [33],> 1000 µM
same,MIC,[8]; [34],> 1000 µM
same,MIC,[9]; [35],1000 µM
same,MIC,[9]; [36],> 1000 µM
same,MIC,[9]; [37],> 1000 µM
same,MIC,[10]; [38],1000 µM
same,MIC,[10]; [39],1000 µM
same,MIC,[10]; [40],1000 µM
same,MIC,[11]; [41],> 500 µM
same,MIC,[11]; [42],> 500 µM
same,MIC,"Candida tropicalis 156; 24 h, read-out: MIC CT 24 h",> 500 µM
same,MIC,"Candida tropicalis 156; 48 h, read-out: MIC CT 48 h",> 500 µM
same,MIC,"Candida krusei E28; 24 h, read-out: MIC CK 24 h",> 500 µM
same,MIC,"Candida krusei E28; 48 h, read-out: MIC CK 48 h",> 500 µM
same,MIC,"Candida glabrata 20/I; 24 h, read-out: MIC CG 24 h",> 500 µM
same,MIC,"Candida glabrata 20/I; 48 h, read-out: MIC CG 48 h",> 500 µM
same,MIC,"Trichosporon asahii 1188; 24 h, read-out: MIC TA 24 h",> 500 µM
same,MIC,"Trichosporon asahii 1188; 48 h, read-out: MIC TA 48 h",> 500 µM
same,MIC,"[12]; 24 h, read-out: MIC AF 24 h",> 500 µM
same,MIC,"[12]; 48 h, read-out: MIC AF 48 h",> 500 µM
same,MIC,"[13]; 24 h, read-out: MIC LC 24 h",> 500 µM
same,MIC,"[13]; 48 h, read-out: MIC LC 48 h",> 500 µM
same,MIC,"[14]; 72 h, read-out: MIC TI 72 h",> 500 µM
same,MIC,"[14]; 120 h, read-out: MIC TI 120 h",> 500 µM
same,"MIC, antibacterial activity",[15]; statement over the bacterial panel,avoided any antibacterial action
same,"MIC, antimycobacterial activity",[16],only negligible antimycobacterial activity
same,"MIC, antifungal activity",eight fungal strains,no antimycotic potency
same,MIC KP-E 24 h,[17],>500 µM
same,MIC KP-E 48 h,[17],>500 µM
same,MIC KP 24 h,[18],>500 µM
same,MIC KP 48 h,[18],>500 µM
"O=C(O)c1ccc(N=Cc2cc(O)ccc2O)cc1 [1i, 4-[(2,5-Dihydroxybenzylidene)amino]benzoic acid]",MIC,[1]; [19],500 µM
same,MIC,[1]; [20],500 µM
same,MIC,[2]; [21],250 µM
same,MIC,[2]; [22],250 µM
same,MIC,[3]; [23],250 µM
same,MIC,[3]; [24],250 µM
same,MIC,[4]; [25],500 µM
same,MIC,[4]; [26],500 µM
same,MIC,[5]; [27],> 500 µM
same,MIC,[5]; [28],> 500 µM
same,MIC,[6]; [29],500 µM
same,MIC,[6]; [30],500 µM
same,MIC,"[6]; time not stated, read-out: MIC, P. aeruginosa",500 µM
same,MIC,[7]; [31],500 µM
same,MIC,[7]; [32],1000 µM
same,MIC,[8]; [33],1000 µM
same,MIC,[8]; [34],> 1000 µM
same,MIC,[9]; [35],500 µM
same,MIC,[9]; [36],500 µM
same,MIC,[9]; [37],1000 µM
same,MIC,[10]; [38],500 µM
same,MIC,[10]; [39],1000 µM
same,MIC,[10]; [40],1000 µM
same,MIC,[11]; [41],500 µM
same,MIC,[11]; [42],500 µM
same,MIC,"Candida tropicalis 156; 24 h, read-out: MIC CT 24 h",> 500 µM
same,MIC,"Candida tropicalis 156; 48 h, read-out: MIC CT 48 h",> 500 µM
same,MIC,"Candida krusei E28; 24 h, read-out: MIC CK 24 h",> 500 µM
same,MIC,"Candida krusei E28; 48 h, read-out: MIC CK 48 h",> 500 µM
same,MIC,"Candida glabrata 20/I; 24 h, read-out: MIC CG 24 h",250 µM
same,MIC,"Candida glabrata 20/I; 48 h, read-out: MIC CG 48 h",250 µM
same,MIC,"Trichosporon asahii 1188; 24 h, read-out: MIC TA 24 h",> 500 µM
same,MIC,"Trichosporon asahii 1188; 48 h, read-out: MIC TA 48 h",> 500 µM
same,MIC,"[12]; 24 h, read-out: MIC AF 24 h",> 500 µM
same,MIC,"[12]; 48 h, read-out: MIC AF 48 h",> 500 µM
same,MIC,"[13]; 24 h, read-out: MIC LC 24 h",> 500 µM
same,MIC,"[13]; 48 h, read-out: MIC LC 48 h",> 500 µM
same,MIC,"[14]; 72 h, read-out: MIC TI 72 h",> 500 µM
same,MIC,"[14]; 120 h, read-out: MIC TI 120 h",> 500 µM
same,MIC,"[15]; Staphylococcus aureus, MRSA, read-out: MIC, multiple Gram-positive strains including MRSA",≥ 250 µM
same,MIC,eight fungal strains,≥ 250 µM
same,MIC KP-E 24 h,[17],500 µM
same,MIC KP-E 48 h,[17],500 µM
same,MIC KP 24 h,[18],500 µM
same,MIC KP 48 h,[18],500 µM
